The values that follow are results of earlier work, collected in patent US5744472A, “1-(N'-(arylalkylaminoalkyl)) aminoisoindoles; a new class of dopamine receptor subtype specific ligands” (Neurogen Corporation, priority 1995, dated 1998).

The structures appear in SMILES notation. Where two headings read alike, the source gives them in different places.

The subject of data set [1] is extrapyramidal side effects (EPS).
The next data set deals with D1 dopamine receptor. As to conditions: background statement.
The next data set relates to D2 receptors. As to conditions: background statement.

`CN1CCN(C2=Nc3cc(Cl)ccc3Nc3ccccc32)CC1` [clozapine]: in data set [1] (compared with classical neuroleptics, background statement), the “incidence of extrapyramidal side effects” value is listed as “lesser incidence of extrapyramidal side effects (EPS) than classical neuroleptics”.
As to `O=C(CCCN1CCC(O)(c2ccc(Cl)cc2)CC1)c1ccc(F)cc1` [haloperidol], in the data set with D1 dopamine receptor, the “binding at the D1 dopamine receptor” value was “binds relatively weakly”. Besides, in the data set on D2 receptors, the “binding affinity at D2 receptors” value is given as “subnanomolar range”.
`CCN1CCCC1CNC(=O)c1cc(S(N)(=O)=O)ccc1OC` (stereo not shown) [sulpiride]: the “incidence of extrapyramidal side effects” value in data set [1] (in vivo) was “lesser incidence of extrapyramidal side effects (EPS) than classical neuroleptics”.
